Results as given in publication PMC2777267, “Crystal Structures of Wzb of Escherichia coli and CpsB of Streptococcus pneumoniae, Representatives of Two Families of Tyrosine Phosphatases that Regulate Capsule Assembly” (Journal of Molecular Biology, 2009).

How the values were obtained:
Cps4B [1] = biological target: T1, Cps4B (Streptococcus pneumoniae, UniProt Q9AHD4); experiment: absorbance at […] nm; assay type: biochemical; design: gene cpsB; recombinant, produced as described earlier; PHP-fold metal-dependent phosphatase with three active-site metals; 1 molecule per asymmetric unit; settings: 25 mM Tris-Cl pH 8.0, 50 mM NaCl, 2.5 mM pNPP, room temperature; 0.5 mM Cu2+, Co2+ or Mn2+ added
T1 sequence (Q9AHD4 whole entry, looked up): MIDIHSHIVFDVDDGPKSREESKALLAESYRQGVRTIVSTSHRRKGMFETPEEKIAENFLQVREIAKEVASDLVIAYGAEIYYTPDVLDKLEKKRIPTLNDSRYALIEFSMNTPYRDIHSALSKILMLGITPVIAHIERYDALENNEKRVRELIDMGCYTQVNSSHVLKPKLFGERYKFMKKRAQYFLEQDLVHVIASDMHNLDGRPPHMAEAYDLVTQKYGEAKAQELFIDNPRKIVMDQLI

Cps4B [2] = biological target: T1, Cps4B; design: gene cpsB; settings: active site, bound to three metals, Arg139 and Arg206; soak up to 50 mM phosphate

SMILES | absorbance at 405 nm (Cps4B [1]) | X-ray crystal structure, 2.2 A, phosphate soak (Cps4B [2])
O=[N+]([O-])c1ccc(OP(=O)(O)O)cc1 [para-nitrophenylphosphate] | it is a relatively poor catalyst with artificial substrate para-nitrophenylphosphate (pNPP) | –
O=P(O)(O)O [phosphate] | – | The phosphate is tightly bound to the active site by a multitude of interactions
